In assay [1] the target is Pim-2 (Homo sapiens (Human), UniProt Q9P1W9). The experiment in a line: Pim enzyme assay (HTRF, 96-well), Pim-2. In kind it is biochemical. As to conditions: full length recombinant Pim-2, biotinylated-BAD (S112) peptide, 10-point curve, 45 min RT, read-out: Pim-2 IC50 IP. From the text:
(§1) These cDNAs were used as templates in PCR reactions to produce full-length DNA clones of the PIMs. […] PCR products were digested with BclI and EcoRI for Pim-1 and BamHI and EcoRI for Pim-2 and ligated into a modified baculovirus transfer vector (pFastBac1) cleaved with BamHI and EcoRI. For bacterial expression, the same cleaved PCR products encoding Pim-1 or Pim-2 were ligated into a modified E. coli expression vector pET28(a) cleaved with BamHI and EcoRI. Amino-terminal hexahistidine tags followed by a thrombin cleavage site were previously added to the vectors using standard methods of molecular biology.
(§2) Recombinant baculoviruses expressing Pim-1 or Pim-2 were made using standard methods (Fastbac manual, Invitrogen, Carlsbad, Calif.). […] Cells were harvested by centrifugation and frozen at −80 C. For E. coli expression, cells carrying pET28-His6-Th-Pim-1 or pET28-His6-Th-Pim-2 were picked from a single colony and grown o/n in LB media. The o/n culture was used to inoculate a 2 liter flask with 500 mL media. This was grown o/n and used to inoculate 15-20 liters of Terrific Broth in a New Brunswick Scientific fermentor. The E. coli were grown at 37° C. to and OD600 >1.6. The temperature was dropped to 18° C. and o/n expression was induced with 0.5 mM IPTG. Cells were harvested by centrifugation and frozen at −80° C.
(§3) The slurry was centrifuged at 1,000×g for 5 min, the supernatant decanted, and the resin suspended in 40 mL of lysis wash buffer (lysis buffer at 0.75 M NaCl). This step was repeated 3× and the resin was transferred to a 2.5 cm glass column. Ten column volumes of wash buffer (0.05 M HEPES, pH 8.0, 0.1 M NaCl, 0.01 M 2-mercaptoethanol, 10%(w/v) glycerol) were applied to the resin followed by 10 column volumes of elution buffer (0.05 M HEPES, pH 8.0, 0.25 M NaCl, 0.01 M 2-mercaptoethanol, 10%(w/v) glycerol, 0.1 M imidazole). Fractions were analyzed by SDS-PAGE and those containing the protein of interest were pooled and concentrated. The concentrated protein was applied to an Amersham Superdex 75 (XK 26/60) column equilibrated in 0.025 M Tris-HCl, pH 7.5, 0.1 M NaCl, 0.01 M 2-mercaptoethanol, 10% (w/v) glycerol. […] Fractions containing the monomeric protein of interest were pooled, concentrated to ˜2 mg/mL, and stored at −80° C.
(§4) The phosphorylation of biotinylated-BAD (S112) peptide by full length recombinant Pim-1, Pim-2, or Pim-3 protein was detected with streptavidin:Allophycocyanin (APC) conjugate and a europium (Eu) labeled antibody directed against phosphorylated-BAD (S112). […] The fluorescence is directly proportional to the amount of phosphorylated BAD peptide present in the reaction. […] A reference compound was included on each assay plate in order to validate that plate; on one plate of every assay run, two additional reference compounds were included. The final buffer conditions were as follows: 60 mM Hepes, pH 7.0, 0.05% BSA, 2 mM DTT. Incubations were carried out at RT (22° C.) for 2 h for Pim-1, 1 hour and 30 min for Pim-3, and 45 min for Pim-2. The reaction was stopped by the addition of 3 mM EDTA, and fluorescence was measured by an HTRF® Rubystar microplate reader. For each plate, percent of control (POC) values were calculated for each well. Values for the IC50 IP were estimated using a standard 4-parameter logistic model.
For orientation: Time-resolved FRET reads energy transfer from a long-lived donor to a nearby acceptor.

Assay [2] has as its target Pim-1 (Homo sapiens (Human), UniProt P11309). The experiment in a line: Pim enzyme assay (HTRF, 96-well), Pim-1. In kind it is biochemical. Particulars: full length recombinant Pim-1, biotinylated-BAD (S112) peptide, 10-point curve, 2 h RT, read-out: Pim-1 IC50 IP.
Text: as §1, §2, §3, §4

Counter-ions that a name gives are not always drawn.

Chain of Pim-2 (Q9P1W9 whole entry): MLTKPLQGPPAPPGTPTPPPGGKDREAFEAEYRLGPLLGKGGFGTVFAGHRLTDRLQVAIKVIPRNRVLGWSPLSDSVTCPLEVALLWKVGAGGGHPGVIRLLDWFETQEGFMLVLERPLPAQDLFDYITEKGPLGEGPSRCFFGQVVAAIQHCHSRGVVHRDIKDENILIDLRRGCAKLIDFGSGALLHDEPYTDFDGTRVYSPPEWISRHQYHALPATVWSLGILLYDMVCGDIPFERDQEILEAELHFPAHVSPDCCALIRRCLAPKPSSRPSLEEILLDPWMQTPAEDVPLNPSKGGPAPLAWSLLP
Chain of Pim-1 (P11309 whole entry): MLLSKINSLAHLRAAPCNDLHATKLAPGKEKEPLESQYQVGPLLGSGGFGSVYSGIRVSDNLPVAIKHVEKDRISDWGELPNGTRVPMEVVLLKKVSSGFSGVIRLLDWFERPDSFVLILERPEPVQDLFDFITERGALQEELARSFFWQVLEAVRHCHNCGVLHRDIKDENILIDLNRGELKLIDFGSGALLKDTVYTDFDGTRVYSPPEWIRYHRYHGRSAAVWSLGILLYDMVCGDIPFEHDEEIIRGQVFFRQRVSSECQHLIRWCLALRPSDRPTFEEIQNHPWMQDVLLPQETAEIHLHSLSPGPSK

Usually IC50 stands for the midpoint of a concentration-inhibition curve. As to `O=C1NCC(Cc2ccccc2)c2[nH]c(-c3cccc4cccnc34)cc21` (racemic) [Example 119, rac-7-benzyl-2-(quinolin-8-yl)-6,7-dihydro-1H-pyrrolo[3,2-c]pyridin-4(5H)-one], the IC50 was determined as 206 nM in assay [1] and 39.4 nM in assay [2].

In the case of `N[C@@H]1CCC[C@H](Nc2ccc3cccc(-c4cc5c([nH]4)CCNC5=O)c3n2)C1` (single isomer, unassigned) [Example 121, 2-(2-((cis-3-aminocyclohexyl)amino)quinolin-8-yl)-6,7-dihydro-1H-pyrrolo[3,2-c]pyridin-4(5H)-one], the concentration for half-maximal inhibition (IC50) in assay [1] was 22.6 nM; in assay [2], 0.6 nM.

For `O=C1NCCc2[nH]c(-c3cccc4ccc(Cl)nc34)cc21` [Example 1, 2-(2-chloroquinolin-8-yl)-6,7-dihydro-1H-pyrrolo[3,2-c]pyridin-4(5H)-one], the half-maximal inhibitory concentration (IC50) in assay [1] was 636 nM; in assay [2] it was 315 nM.

With `O=c1[nH]ccc2[nH]c(-c3cccc4ccc(Nc5c(F)cccc5Cl)nc34)cc12` [Example 12, 2-(2-((2-chloro-6-fluorophenyl)amino)quinolin-8-yl)-1H-pyrrolo[3,2-c]pyridin-4(5H)-one], the IC50 in assay [1] was 11 nM; in assay [2], 2 nM.

As for `O=C1NCCc2[nH]c(-c3cccc4ccc(Nc5cncnc5)nc34)cc21` [Example 13, 2-(2-(pyrimidin-5-ylamino)quinolin-8-yl)-6,7-dihydro-1H-pyrrolo[3,2-c]pyridin-4(5H)-one], the IC50 in assay [1] was determined as 2.8 nM; in assay [2], 0.8 nM.

For `O=c1[nH]cnc2[nH]c(-c3cccc4ccc(Oc5ccccc5)nc34)cc12` [Example 17, 6-(2-phenoxyquinolin-8-yl)-3H-pyrrolo[2,3-d]pyrimidin-4(7H)-one], the values for the concentration for half-maximal inhibition (IC50) in assay [1] and in assay [2] were 80.2 nM and 34 nM, respectively.

Turning to `O=C1NCCc2[nH]c(-c3cccc4ccc(Oc5ccc(Cl)cc5)nc34)cc21` [Example 18, 2-(2-(4-chlorophenoxy)quinolin-8-yl)-6,7-dihydro-1H-pyrrolo[3,2-c]pyridin-4(5H)-one], the IC50 in assay [1] is 44.9 nM; in assay [2] it was 15.5 nM.

`O=c1[nH]cnc2[nH]c(-c3cccc4ccc(Cl)nc34)cc12` [Example 19, 6-(2-chloroquinolin-8-yl)-3H-pyrrolo[2,3-d]pyrimidin-4(7H)-one trifluoroacetate]: the half-inhibitory concentration (IC50) stood at 908 nM in assay [1] and 133 nM in assay [2].

For the compound `O=C1NCCc2[nH]c(-c3cccc4ccc(OCc5ccccc5)nc34)cc21` [Example 20, 2-(2-(benzyloxy)quinolin-8-yl)-6,7-dihydro-1H-pyrrolo[3,2-c]pyridin-4(5H)-one], the 50% inhibitory concentration (IC50) in assay [1] worked out at 98.4 nM; in assay [2] it was 38.5 nM.

On to `O=C1NCCc2[nH]c(-c3cccc4ccc(Nc5cccc(Cl)c5)nc34)cc21` [Example 40, 2-(2-((3-chlorophenyl)amino)-8-quinolinyl)-1,5,6,7-tetrahydro-4H-pyrrolo[3,2-c]pyridin-4-one], for which the 50% inhibitory concentration (IC50) came to 14.3 nM in assay [1] and 1.8 nM in assay [2].

As to `O=C1NCCc2[nH]c(-c3cccc4ccc(Oc5cccc(Cl)c5)nc34)cc21` [Example 41, 2-(2-(3-chlorophenoxy)-8-quinolinyl)-1,5,6,7-tetrahydro-4H-pyrrolo[3,2-c]pyridin-4-one], the values for the IC50 in assay [1] and in assay [2] were 68 nM and 13.6 nM, respectively.

Consider `Cc1cccc(Oc2ccc3cccc(-c4cc5c([nH]4)CCNC5=O)c3n2)c1` [Example 43, 2-(2-(3-methylphenoxy)-8-quinolinyl)-1,5,6,7-tetrahydro-4H-pyrrolo[3,2-c]pyridin-4-one], for which the half-inhibitory concentration (IC50) came out at 47.8 nM in assay [1] and 17.9 nM in assay [2].

Regarding `COC(=O)N(c1ccccc1)c1ccc2cccc(-c3cc4c([nH]3)CCNC4=O)c2n1` [Example 46, Methyl (8-(4-oxo-4,5,6,7-tetrahydro-1H-pyrrolo[3,2-c]pyridin-2-yl)-2-quinolinyl)phenylcarbamate], the concentration for half-maximal inhibition (IC50) is 125 nM in assay [1] and 58.1 nM in assay [2].

As to `O=C1NCCc2[nH]c(-c3cccc4ccc(OC5CCNCC5)nc34)cc21` [Example 81, 2-(2-(piperidin-4-yloxy)quinolin-8-yl)-6,7-dihydro-1H-pyrrolo[3,2-c]pyridin-4(5H)-one], the IC50 amounted to 95.6 nM in assay [1] and 6 nM in assay [2].

Consider `CS(=O)(=O)c1ccc(-c2ccc3cccc(-c4cc5c([nH]4)CCNC5=O)c3n2)c(F)c1` [Example 86, 2-(2-(2-fluoro-4-(methylsulfonyl)phenyl)quinolin-8-yl)-6,7-dihydro-1H-pyrrolo[3,2-c]pyridin-4(5H)-one], for which the IC50 in assay [1] stood at 143 nM; in assay [2], 49.5 nM.

In the case of `COc1ccc(Cl)cc1-c1ccc2cccc(-c3cc4c([nH]3)CCNC4=O)c2n1` [Example 88, 2-(2-(5-chloro-2-methoxyphenyl)quinolin-8-yl)-6,7-dihydro-1H-pyrrolo[3,2-c]pyridin-4(5H)-one], the IC50 was 166 nM in assay [1] and 42.1 nM in assay [2].

As to `O=C1NCCc2[nH]c(-c3cccc4ccc(O[C@@H]5CCCNC5)nc34)cc21` [Example 89, (R)-2-(2-(piperidin-3-yloxy)quinolin-8-yl)-6,7-dihydro-1H-pyrrolo[3,2-c]pyridin-4(5H)-one], the concentration for half-maximal inhibition (IC50) in assay [1] was 340 nM; in assay [2] it was 46.6 nM.

`Nc1ccc(-c2ccc3cccc(-c4cc5c([nH]4)CCNC5=O)c3n2)c(F)c1` [Example 91, 2-(2-(4-amino-2-fluorophenyl)quinolin-8-yl)-6,7-dihydro-1H-pyrrolo[3,2-c]pyridin-4(5H)-one]: the half-inhibitory concentration (IC50) is 46.1 nM in assay [1] and 10.6 nM in assay [2].

Turning to `Cc1cccc(C)c1Oc1ccc2cccc(-c3cc4c([nH]3)CCNC4=O)c2n1` [Example 101], the concentration for half-maximal inhibition (IC50) in assay [1] was 80.9 nM; in assay [2], 19.8 nM.

Regarding `C[C@@H](Nc1ccc2cccc(-c3cc4c([nH]3)CCNC4=O)c2n1)c1ccccc1` [Example 111, (R)-2-(2-((1-phenylethyl)amino)quinolin-8-yl)-6,7-dihydro-1H-pyrrolo[3,2-c]pyridin-4(5H)-one], the half-inhibitory concentration (IC50) in assay [1] is 181 nM; in assay [2], 19 nM.

For the compound `C[C@H](Nc1ccc2cccc(-c3cc4c([nH]3)CCNC4=O)c2n1)c1ccccc1` [Example 112, (S)-2-(2-((1-phenylethyl)amino)quinolin-8-yl)-6,7-dihydro-1H-pyrrolo[3,2-c]pyridin-4(5H)-one], the IC50 stood at 182 nM in assay [1] and 29 nM in assay [2].

Regarding `C=C(c1ccccc1)c1ccc2cccc(-c3cc4c([nH]3)CCNC4=O)c2n1` [Example 113, 2-(2-(1-phenylvinyl)quinolin-8-yl)-6,7-dihydro-1H-pyrrolo[3,2-c]pyridin-4(5H)-one], the 50% inhibitory concentration (IC50) is 8.1 nM in assay [1] and 4.7 nM in assay [2].

`O=C1NCCc2[nH]c(-c3cccc4ccc(N[C@@H]5CCCNC5)nc34)cc21` [Example 124, (R)-2-(2-(piperidin-3-ylamino)quinolin-8-yl)-6,7-dihydro-1H-pyrrolo[3,2-c]pyridin-4(5H)-one]: the IC50 in assay [1] amounted to 141 nM; in assay [2], 6.4 nM.

Consider `Cc1nc2cccc(-c3cc4c([nH]3)CCNC4=O)c2nc1N[C@H](C)C(N)=O` [Example 128, (R)-2-((3-methyl-8-(4-oxo-4,5,6,7-tetrahydro-1H-pyrrolo[3,2-c]pyridin-2-yl)quinoxalin-2-yl)amino)propanamide], for which the IC50 in assay [1] was 222 nM; in assay [2], 204 nM.

For `Cc1nc2cccc(-c3cc4c([nH]3)CCNC4=O)c2nc1N[C@@H](C)C(N)=O` [Example 129, (S)-2-((3-methyl-8-(4-oxo-4,5,6,7-tetrahydro-1H-pyrrolo[3,2-c]pyridin-2-yl)quinoxalin-2-yl)amino)propanamide], the figures for the IC50 in assay [1] and in assay [2] were 227 nM and 99.3 nM, respectively.

Values taken from patent US9394297B2, “Amides as pim inhibitors” (AMGEN INC., priority 2012, dated 2016).
